Data on one compound can be found in article PMC9821961, “Ring-Modified Histidine-Containing Cationic Short Peptides Exhibit Anticryptococcal Activity by Cellular Disruption” (Molecules, 2022).

The test system of assay [1] is C. parapsilosis. Put plainly: microbe, parasite or virus in culture. Format: cell-based, Candida parapsilosis. Conditions: Lodderomyces parapsilosis, C. parapsilosis. In a few lines:
(§1)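 Growth inhibition was measured by broth microdilution. MIC and IC50 were calculated from optical density at 600 nm after 48 h at 30 °C for Candida and Cryptococcus (10^3 CFU/mL, RPMI 1640 or YPED) and after 24 h at 37 °C for the Gram-positive bacteria (10^5 CFU/mL, Mueller Hinton).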

Assay [2] deals with C. albicans. Put plainly: microbe, parasite or virus in culture. Conditions: Candida albicans, C. albicans. Format: cell-based, Candida albicans. The method, boiled down: as §1
The test system of assay [3] is C. neoformans cells. Put plainly: Time kill assay. To be noted: time-kill profile over 24 h.
Assay [4] has as its system Cryptococcal cells. Put plainly: microbe, parasite or virus in culture. Conditions: Cryptococcus neoformans, read-out: MIC Alone.
Assay [5] has as its system C. glabrata. Description: microbe, parasite or virus in culture. To be noted: Nakaseomyces glabratus, C. glabrata. Format: cell-based, Candida glabrata. In a few lines: (§2)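 CLSI broth microdilution with two-fold serial dilutions of DMSO-dissolved peptides. Fungi (C. glabrata MTCC 3019, C. neoformans NCCPF250316) were grown in RPMI 1640 or YPED at 10^3 CFU/mL for 48 h at 30 °C. Bacteria (S. aureus MTCC 3160, E. faecalis MTCC 439) were grown in Mueller Hinton at 10^5 CFU/mL for 24 h at 37 °C. MIC and IC50 come from OD600.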

Assay [6] relates to C. krusei. Put plainly: microbe, parasite or virus in culture. Format: cell-based, Candida krusei. To be noted: Pichia kudriavzevii, C. krusei. In a few lines: as §1
The subject of assay [7] is Cryptococcal cells.
Assay [8] relates to C. neoformans. Description: microbe, parasite or virus in culture. It is filed as cell-based, Cryptococcus neoformans. To be noted: Cryptococcus neoformans, C. neoformans. In a few lines:
as §2

≈ marks a conversion by molar mass, not a printed value. Read-outs that look alike come from different tables or passages of the source.

Consider `C[C@@H]1[C@H](O)[C@@H](C)/C=C/C=C/C=C/C=C/C=C/C=C/C=C/[C@H](O[C@@H]2O[C@H](C)[C@@H](O)[C@H](N)[C@@H]2O)C[C@@H]2O[C@](O)(C[C@@H](O)C[C@@H](O)[C@H](O)CC[C@@H](O)C[C@@H](O)CC(=O)O[C@H]1C)C[C@H](O)[C@H]2C(=O)O` [Amphotericin B, reference compound], for which the IC50 in assay [1] (read-out: IC50) is 0.36 µg/mL (≈ 0.39 µM); in assay [2] (read-out: IC50), 0.36 µg/mL (≈ 0.39 µM); in assay [5] (read-out: IC50), 0.18 µg/mL (≈ 0.195 µM); in assay [6] (read-out: IC50), 0.36 µg/mL (≈ 0.39 µM); in assay [8] (concentration that leads to ~50% inhibition of growth, read-out: IC50) it was 0.5 µg/mL (≈ 0.541 µM). In addition, the MIC was 0.72 µg/mL (≈ 0.779 µM) in assay [1] (read-out: MIC); 0.72 µg/mL (≈ 0.779 µM) in assay [2] (read-out: MIC); 1 µg/mL (≈ 1.08 µM) in assay [4]; 0.36 µg/mL (≈ 0.39 µM) in assay [5] (read-out: MIC); 0.72 µg/mL (≈ 0.779 µM) in assay [6] (read-out: MIC); 1 µg/mL (≈ 1.08 µM) in assay [8] (lowest test concentration with no detectable growth, read-out: MIC). Further, in assay [3], the “Time after which growth/CFUs of cryptococcal cells dropped or were inhibited” value worked out at 4 h. Besides, the Effect entry in assay [7] (combination 10o + Amp B) and in assay [7] (combination 10d + Amp B) was “Synergistic” each time. Further, the FICI in assay [7] (combination 10o + Amp B) was determined as 0.31; in assay [7] (combination 10d + Amp B), 0.18. Moreover, the “Fold Decrease in MIC” value in assay [7] (combination 10o + Amp B) worked out at 4; in assay [7] (combination 10d + Amp B), 8. For the same compound, the “MIC In Combination” value is 0.250 µg/mL in assay [7] (combination 10o + Amp B) and 0.125 µg/mL in assay [7] (combination 10d + Amp B).

The IC50 is the concentration that gives 50% inhibition.
